Experimental data as given in US11135178B2, “Thymol and carvacol for use in medicine” (UNIVERSITY OF IOWA RESEARCH FOUNDATION, priority 2014, dated 2021).

Key:
[1] = test system: C2C12 myotubes; experiment: Fura-2 Ca2+ ratios in C2C12 myotubes, functional screen with TRPV agonists; type: cell-based; conditions: for intracellular (cytosolic) Ca2+ rise: Fura-2 Ca2+ ratios
Experimental: FIG. 2. Fura-2 Ca^2+ Ratios in C2C12 myotubes in response to known activators of TRPV1 (Capsaicin), TRPV3 (Thymol, Carvacrol, 2-APB), and TRPV4 (GSK 101). ** p<0.01 compared to vehicle Ca^2+ response.
To determine the physiological significance of these TRPV ion channels in skeletal muscle Ca^2+ homeostasis, a functional screen for the magnitude of intracellular Ca^2+ rise was performed using known agonists for TRPV1 (Capsaicin), TRPV3 (Carvacrol/Thymol/2-APB) and TRPV4 (GSK101) in C2C12 myotubes (FIG. 2). C2C12 myoblasts were grown to confluency and then differentiated into myotubes by culturing in Dulbecco's Modified Eagles Medium (DMEM) with 2% horse serum for 5 days. Measurement of Fura-2 Ca2+ ratios in C2C12 myotubes was performed as described previously in cultured adipocytes (Ye L., et al., TRPV4 is a regulator of adipose oxidative metabolism, inflammation, and energy homeostasis. Cell. 2012; 151:96-110).

[2] = test system: flexor digitorum brevis (FDB) muscle fibers; experiment: Confocal calcium imaging (Fluo-4AM) of freshly isolated FDB muscle fibers; type: cell-based, mouse; conditions: for effects on Ca2+ cycling: freshly isolated muscle fibers, carvacrol 100, 200, 500 μM, thymol 50, 100, 200 μM
Experimental: FIG. 3. Confocal calcium imaging (Fluo-4AM) of freshly isolated mouse flexor digitorum brevis (FDB) muscle fibers in response to sequential applications of carvacrol (A: 100, 200 and 500 μM) and thymol (B: 50, 100 and 200 μM).
These findings were further validated in freshly isolated mouse flexor digitorum brevis (FDB) muscle fibers (FIG. 3) to confirm the result in primary muscle cells. Primary skeletal muscle fibers were isolated from flexor digitorum brevis (FDB) muscle. In brief, FDB muscles were dissected and mechanically cleaned of connective tissue in a standard Ringer's solution containing (in mM): 146 NaCl, 5 KCl, 2 CaCl2, 1 MgCl2, and 10 HEPES, pH 7.4 with NaOH. Muscles were then shaken for 40 min at 37° C. in 1 mg/ml of collagenase A (Roche) dissolved in Ringer's solution. After collagenase treatment, individual FDB fibers were dissociated by gentle trituration using Pasteur pipettes of decreasing bore size. […] All experiments were conducted at room temperature on fibers obtained within 8 h of isolation. Confocal calcium imaging of FDB fibers were performed as described previously in cardiac myocytes but at room temperature (23° C.) (Sah R., et al., Ion channel-kinase TRPM7 is required for maintaining cardiac automaticity. Proc Natl Acad Sci USA. 2013; 110:E3037-46).

[3] = test system: IGF-1; experiment: qRT-PCR transcriptional screen in C2C12 myotubes: IGF-1; type: cell-based; conditions: 48 hrs
Experimental: (§1) FIG. 5. […] A. fold change after 48 hrs carvacrol (0, 5, and 100 μM, from left to right for each grouping); and B. thymol (0, 5, and 50 μM, from left to right for each grouping).
(§2) A qRT-PCR based transcriptional screen was then performed to assess for induction of the classical genes associated with exercise-induced changes in skeletal muscle, including growth, and enhanced endurance (FIG. 5). Transcriptional analysis of candidate genes was performed as described previously (Sah R., et al., The Timing of Myocardial Trpm7 Deletion during Cardiogenesis Variably Disrupts Adult Ventricular Function, Conduction and Repolarization. Circulation. 2013; Sah R., et al., Ion channel-kinase TRPM7 is required for maintaining cardiac automaticity. Proc Natl Acad Sci USA. 2013; 110:E3037-46) using the following primers: […]

[4] = test system: PGC1α; experiment: qRT-PCR transcriptional screen in C2C12 myotubes: PGC1α; type: cell-based; conditions: 48 hrs
Experimental: as §1, §2

[5] = test system: C2C12 myotubes; experiment: Myotube hypertrophy by immunostaining and confocal imaging (myotube diameter); type: cell-based; conditions: 50 μM for 48 hours
Experimental: FIG. 4. A. Confocal images immunostained C2C12 myotubes (staining skeletal actin and Topro-3 nuclear stain) incubated for 48 hrs in vehicle (left) or carvacrol 50 μM (right). B. quantification of myotube width. NT—not treated, Vehicle—DMSO.
It was next examined whether the increase in cytosolic Ca^2+ induced by this class of compounds could induce cellular hypertrophy in vitro in C2C12 myotubes as would occur with augmented Ca^2+ release during exercise. Immunostaining and confocal imaging of C2C12 myotubes were performed as described previously in cardiac myocytes (Sah R., et al., The Timing of Myocardial Trpm7 Deletion during Cardiogenesis Variably Disrupts Adult Ventricular Function, Conduction and Repolarization. Circulation. 2013).

[6] = test system: C57/B6 mice; experiment: Exercise tolerance by treadmill testing of sedentary mice; type: in vivo, mouse; conditions: 20 mg/kg/day oral gavage, 5 weeks
Experimental: FIG. 6. Exercise tolerance measured by treadmill testing of C57/B6 mice before and after 5 weeks of either vehicle or thymol (20 mg/kg/day). A. Exercise protocol and tolerance after vehicle or thymol. B. Mean exercise tolerance pre and post treatment.
(§3) Based on these strong in vitro data, in vivo studies were then performed to determine both safety and efficacy of using thymol and/or carvacrol to mimic the effects of exercise on skeletal muscle function. […] Accordingly, the pilot studies were limited to thymol alone and treated sedentary C57/B6 mice with either vehicle (Sunflower oil) or Thymol (20 mg/kg/day) by oral gavage for 5 weeks and then assessed exercise capacity by treadmill testing, core body temperature by infra-red thermal imaging, and skeletal muscle hypertrophy by muscle weight. […] J Gen Physiol. 2014; 143:119-34)) after mild exercise (FIG. 7) and an increase in gastrocnemius muscle weight (weight bearing muscles—FIG. 8).

[7] = test system: C57/B6 mice; experiment: Core body temperature by infra-red thermal imaging after mild exercise; type: in vivo, mouse; conditions: sedentary C57/B6 mice, 20 mg/kg/day oral gavage, 5 weeks
Experimental: FIG. 7. Top: Representative thermal images of vehicle (left) and thymol (right) treated mice. Bottom: Mean data of temperature of upper and lower body in vehicle-treated vs thymol treated mice.
as §3

[8] = test system: TRPV3 knock-out mice; experiment: In vivo experiments repeated in TRPV3 knock-out mice; set-up: species or system mouse; conditions: TRPV3 KO mice, 20 mg/kg/day, 5 weeks
Experimental: FIG. 9: Exercise tolerance measured by treadmill testing of TRPV3 KO mice before and after 5 weeks of either vehicle or thymol (20 mg/kg/day). A. Exercise protocol and tolerance after vehicle or thymol. B. Mean exercise tolerance pre and post treatment.
as §3

[9] = test system: C57/B6 mice; experiment: Skeletal muscle hypertrophy by muscle weight; type: in vivo, mouse; conditions: sedentary C57/B6 mice, 20 mg/kg/day oral gavage, 5 weeks
Experimental: FIG. 8: Skeletal muscle weight in sedentary C57/B6 mice after 5 weeks of treatment with either vehicle or thymol (for each group, the left bar represents vehicle and the right bar represents thymol).
as §3

Row | Compound | intracellular (cytosolic) Ca2+ rise [1] | effects on Ca2+ cycling [2] | induction of IGF-1 [3] [fold] | induction of PGC1α [4] [fold] | further results
1 | NCCOB(c1ccccc1)c1ccccc1 [2-APB, reference compound] | reproducible and reversible increases |  |  |  | 
2 | COc1cc(CNC(=O)CCCC/C=C/C(C)C)ccc1O [Capsaicin, reference compound] | essentially no effect |  |  |  | 
3 | CC(C)C[C@H](NC(=O)c1cc2ccccc2s1)C(=O)N1CCN(C(=O)[C@H](CO)NS(=O)(=O)c2ccc(Cl)cc2Cl)CC1 [GSK101, reference compound] | essentially no effect |  |  |  | 
4 | Cc1ccc(C(C)C)cc1O [carvacrol, 2-methyl-5-isopropylphenol] | reproducible and reversible increases | clear effects | ~8 | 13.8 | myotube hypertrophy (increase in myotube diameter) [5]: significant myotube hypertrophy
5 | Cc1ccc(C(C)C)c(O)c1 [thymol, 2-isopropyl-5-methylphenol] | reproducible and reversible increases | clear effects | ~4 | 3 | potency at augmenting cytosolic Ca2+ relative to carvacrol ([2]; freshly isolated mouse FDB fibers): approximately twice as potent as carvacrol; augmented exercise capacity over vehicle treated mice [6]: 37%; core body temperature after mild exercise [7]: significant increase; augmented thermogenesis in TRPV3 knock-out mice [8]: abolished; enhanced exercise capacity in TRPV3 knock-out mice [8]: abolished; gastrocnemius hypertrophy in TRPV3 knock-out mice [8]: abolished; potency at augmenting cytosolic Ca2+ relative to carvacrol [1]: approximately twice as potent as carvacrol; gastrocnemius muscle weight [9]: increase
